# Test results taken from patent publication US12522587B2, “Cancer treatments targeting cancer stem cells” (Remedy Plan, Inc., priority 2018, dated 2026).
# Tested on: AGS cells
# Test: Cell viability in AGS cells (CellTiter Glo2, 8-point dose response, 4 days)
# Format: cell-based, human
# Settings: not given
# Experimental: AGS cells were treated with DMSO (no drug control) or each compound in Table 5 in an 8-point dose response for 4 days. Cell viability was measured using CellTiter Glo2. The IC50 of each compound was determined using CDD Vault.
row,SMILES,IC50
1,"CC(=O)N1CCCc2cc(-c3ccc(C(=O)NCc4cccnc4)cc3)ccc21 [Compound I-46, 4-(1-acetyl-1,2,3,4-tetrahydroquinolin-6-yl)-N-(pyridin-3-ylmethyl)benzamide]",> 18.3 µM
2,"CCC(=O)N1CCc2cc(-c3ccc(C(=O)NCc4cccnc4)nc3)ccc21 [Compound I-55, 5-(1-propionylindolin-5-yl)-N-(pyridin-3-ylmethyl)picolinamide]",3.66 µM
3,"CCC(=O)N1CCc2cc(-c3ccc(C(=O)NCc4ccc(C)nc4C)cc3)ccc21 [Compound I-60, N-((2,6-dimethylpyridin-3-yl)methyl)-4-(1-propionylindolin-5-yl)benzamide]",0.384 µM

# Results, then the molecule that gave them:
row,IC50,SMILES
1,15.1 µM,"CCC(=O)N1CCc2cc(-c3nc(C(=O)NCc4cccnc4)c[nH]3)ccc21 [Compound I-208, 2-(1-propionylindolin-5-yl)-N-(pyridin-3-ylmethyl)-1H-imidazole-4-carboxamide]"
2,2.59 µM,"CCC(=O)N1CCc2cc(-c3ccc(C(=O)NCc4cccnc4)cc3C)ccc21 [Compound I-91, 3-methyl-4-(1-propionylindolin-5-yl)-N-(pyridin-3-ylmethyl)benzamide]"

# Same assay, conditions: Homo sapiens, AGS, 96 h
row,SMILES,IC50
1,CCC(=O)N1CCc2cc(-c3ccc(C(=O)NC(C)c4ccccc4)cc3)ccc21 (stereo not shown) [Compound I-160],> 30 µM
2,"CCC(=O)N1CCc2cc(-c3cnc(C(=O)NCc4cccnc4)nc3)ccc21 [Compound I-65, 5-(1-propionylindolin-5-yl)-N-(pyridin-3-ylmethyl) pyrimidine-2-carboxamide]",7.27 µM
3,"CC(=O)N1CCCc2cc(-c3ccc(C(=O)NCc4cccnc4)cc3)ccc21 [Compound I-46, 4-(1-acetyl-1,2,3,4-tetrahydroquinolin-6-yl)-N-(pyridin-3-ylmethyl)benzamide]",> 17.5 µM
4,"CCC(=O)N1CCc2cc(-c3ccc(C(=O)NCC4CCOCC4)cc3)ccc21 [Compound I-191, 4-(1-propionylindolin-5-yl)-N-((tetrahydro-2H-pyran-4-yl)methyl)benzamide]",> 30 µM
5,CCC(=O)N1CCc2cc(-c3ccc(C(=O)NCc4cccc(Cl)c4)cc3)ccc21 [Compound I-168],> 30 µM
6,CCC(=O)N1CCc2cc(-c3ccc(C(=O)NCc4cccnc4)cc3)c(F)cc21 [Compound I-211],1.16 µM
7,CCC(=O)N1CCc2cc(-c3ccc(C(=O)NCc4cccc(F)c4)cc3)ccc21 [Compound I-174],> 30 µM
8,CCC(=O)N(C)c1ccc(-c2ccc(C(=O)NCc3cscn3)cc2)cc1 [Compound I-236],> 30 µM
9,"CCC(=O)N1CCc2nc(-c3ccc(C(=O)NCc4cccnc4)cc3)ccc21 [Compound I-71, 4-(1-propionyl-2,3-dihydro-1H-pyrrolo[3,2-b]pyridin-5-yl)-N-(pyridin-3-ylmethyl)benzamide]",4.35 µM
10,CN(C(=O)CC#N)c1ccc(-c2ccc(C(=O)NCc3cccnc3)cc2)cc1 [Compound I-249],> 18.4 µM
11,CCC(=O)N1CCc2cc(-c3ccc(C(=O)NCc4cccc(OC)c4)cc3)ccc21 [Compound I-171],> 30 µM
12,CCC(=O)N(C)c1ccc(-c2ccc(C(=O)NCc3cncc(C)c3)cc2)cc1 [Compound I-237],6.69 µM
13,CCC(=O)N1CCc2cc(-c3ccc(C(=O)NCC4CCCC4)cc3)ccc21 [Compound I-207],> 100 µM
14,"CCC(=O)N1CCc2cc(-c3cccc(C(=O)NCc4cccnc4)c3)ccc21 [Compound I-50, 3-(1-propionylindolin-5-yl)-N-(pyridin-3-ylmethyl)benzamide]",> 30 µM
15,"CCC(=O)N(C)c1ccc(-c2ccc(C(=O)NCc3cccnc3)cc2)cc1C [Compound I-215, 3′-methyl-4′-(N-methylpropionamido)-N-(pyridin-3-ylmethyl)-[1,1′-biphenyl]-4-carboxamide]",1.82 µM
16,CCC(=O)N1CCc2cc(-c3ccc(C(=O)NCC4CCCO4)cc3)ccc21 (stereo not shown) [Compound I-178],> 30 µM
17,CCC(=O)N1CCc2cc(-c3ccc(C(=O)NCc4ccc(F)cc4)cc3)ccc21 [Compound I-179],> 30 µM
18,"CCC(=O)N1CCc2cc(-c3ccc(C(=O)NCc4cccnc4)nc3)ccc21 [Compound I-55, 5-(1-propionylindolin-5-yl)-N-(pyridin-3-ylmethyl)picolinamide]",2.89 µM
19,"CCC(=O)n1ncc2cc(-c3ccc(C(=O)NCc4cccnc4)cc3)ccc21 [Compound I-56, 4-(1-propionyl-1H-indazol-5-yl)-N-(pyridin-3-ylmethyl)benzamide]",7.68 µM
20,CC(=O)N(C)c1ccc(-c2ccc(C(=O)NCc3cccnc3)cc2)cc1C [Compound I-216],2.44 µM
21,CCN(C)C(=O)c1ccc(-c2ccc(C(=O)NCc3cccnc3)cc2)cc1 [Compound I-251],1.65 µM
22,"CCC(=O)N1CCc2cc(-c3ccc(C(=O)NC(C)c4cccnc4)cc3)ccc21 (stereo not shown) [Compound I-57, 4-(1-propionylindolin-5-yl)-N-(1-(pyridin-3-yl)ethyl)benzamide]",> 28.2 µM
23,CCOc1ccc(CNC(=O)c2ccc(-c3ccc4c(c3)CCN4C(=O)CC)cc2)cc1 [Compound I-180],> 30 µM
24,"CCC(=O)N1CCc2cc(-c3ccc(C(=O)NCc4ccc(C)nc4C)cc3)ccc21 [Compound I-60, N-((2,6-dimethylpyridin-3-yl)methyl)-4-(1-propionylindolin-5-yl)benzamide]",0.344 µM

# Further lines, results first:
row,IC50,SMILES
1,5.11 µM,CN(C(=O)c1ccccc1)c1ccc(-c2ccc(C(=O)NCc3cccnc3)cc2)cc1 [Compound I-240]
2,> 13.3 µM,"CCC(=O)n1ccc2cc(-c3ccc(C(=O)NCc4cccnc4)cc3)ccc21 [Compound I-90, 4-(1-propionyl-1H-indol-5-yl)-N-(pyridin-3-ylmethyl)benzamide]"
3,4.54 µM,CCC(=O)N1CCc2cc(N3CCN(C(=O)NCc4cccnc4)CC3)ccc21 [Compound I-223]
4,25.8 µM,CCC(=O)N1CCc2cc(-c3ccc(C(=O)NCc4ccc(Cl)cc4)cc3)ccc21 [Compound I-176]
5,5.14 µM,CC(=O)N1CCc2cc(-c3ccc(C(=O)NCc4ccccn4)cc3)ccc21 [Compound I-175]
6,> 30 µM,CCC(=O)N(C)c1ccc(-c2ccc(C(=O)NCc3cncs3)cc2)cc1 [Compound I-235]
7,0.607 µM,CCC(=O)N(C)c1ccc(-c2ccc(C(=O)NCc3ccc(C)nc3C)cc2)cc1 [Compound I-221]
8,1.35 µM,CCC(=O)N1CCc2cc(-c3ccc(C(=O)NCc4cccnc4)cc3)c(Cl)cc21 [Compound I-212]
9,5.22 µM,"CCC(=O)N(C)c1ccc(-c2ccc(C(=O)NCc3cccnc3)nc2)cc1C [Compound I-227, 5-(3-methyl-4-(N-methylpropionamido)phenyl)-N-(pyridin-3-ylmethyl)picolinamide]"
10,> 30 µM,CCC(=O)N1CCc2cc(-c3ccc(C(=O)NCc4ccco4)cc3)ccc21 [Compound I-181]
11,> 30 µM,"CCC(=O)N1CCc2cc(-c3ccc(C(=O)NCc4cccnc4C)cc3)ccc21 [Compound I-61, N-((2-methylpyridin-3-yl)methyl)-4-(1-propionylindolin-5-yl)benzamide]"
12,12.1 µM,"CCC(=O)N(C)c1ccc(-c2ccc(C(=O)NCc3cccnc3)cn2)c(C)c1 [Compound I-246, 6-(2-methyl-4-(N-methylpropionamido)phenyl)-N-(pyridin-3-ylmethyl)nicotinamide]"
13,3.02 µM,CCC(=O)N1CCc2cc(-c3ccc(C(=O)NCc4cccnc4)c(O)c3)ccc21 [Compound I-210]
14,9.45 µM,"CCC(=O)N1CCc2cc(-c3ccc(S(=O)(=O)NCc4cccnc4)cc3)ccc21 [Compound I-48, 4-(1-propionylindolin-5-yl)-N-(pyridin-3-ylmethyl)benzenesulfonamide]"
15,> 30 µM,"CCC(=O)N1CCc2cc(-c3ccc(C(=O)NCC4CCCCC4)cc3)ccc21 [Compound I-186, N-(cyclohexylmethyl)-4-(1-propionylindolin-5-yl)benzamide]"
16,9.76 µM,CCC(=O)N(C)c1ccc(-c2ccc(S(=O)(=O)NCc3cccnc3)cc2)cc1 [Compound I-226]

row,IC50,SMILES
1,> 30 µM,"CCC(=O)N1CCc2cc(-c3ccc(C(=O)NCc4ccncn4)cc3)ccc21 [Compound I-204, 4-(1-propionylindolin-5-yl)-N-(pyrimidin-4-ylmethyl)benzamide]"
2,> 20.6 µM,"CN1CCc2cc(-c3ccc(C(=O)NCc4cccnc4)cc3)ccc21 [Compound I-75, 4-(1-methylindolin-5-yl)-N-(pyridin-3-ylmethyl)benzamide]"
3,> 30 µM,CCC(=O)N1CCc2cc(-c3ccc(C(=O)NCc4ccc(OC)cc4)cc3)ccc21 [Compound I-156]
4,> 30 µM,CCC(=O)N1CCc2cc(-c3ccc(NC(=O)Cc4cccnc4)cc3)ccc21 [Compound I-95]
5,> 30 µM,"CCC(=O)N1CCc2cc(-c3nc(C(=O)NCc4cccnc4)c[nH]3)ccc21 [Compound I-208, 2-(1-propionylindolin-5-yl)-N-(pyridin-3-ylmethyl)-1H-imidazole-4-carboxamide]"
6,> 30 µM,"CCC(=O)N1CCc2cc(-c3ccc(C(=O)NCc4cnco4)cc3)ccc21 [Compound I-73, N-(oxazol-5-ylmethyl)-4-(1-propionylindolin-5-yl)benzamide]"
7,3.83 µM,"CC(=O)N1CCc2cc(-c3ccc(C(=O)NCc4cccnc4)cc3)ccc21 [Compound I-42, 4-(1-acetylindolin-5-yl)-N-(pyridin-3-ylmethyl) benzamide]"
8,> 30 µM,"CCC(=O)N1CCc2cc(-c3ccc(C(=O)NCc4ccncc4)cc3)ccc21 [Compound I-49, 4-(1-propionylindolin-5-yl)-N-(pyridin-4-ylmethyl)benzamide]"
9,29.7 µM,"CC(C)(O)C(=O)N1CCc2cc(-c3ccc(C(=O)NCc4cccnc4)cc3)ccc21 [Compound I-68, 4-(1-(2-hydroxy-2-methylpropanoyl)indolin-5-yl)-N-(pyridin-3-ylmethyl)benzamide]"
10,> 30 µM,CCC(=O)N(C)c1ccc(-c2ccc(C(=O)NCc3cncc(F)c3)cc2)cc1 [Compound I-234]
11,> 30 µM,"CCC(=O)N1CCc2cc(-c3ccc(C(=O)NCc4cncnc4)cc3)ccc21 [Compound I-51, 4-(1-propionylindolin-5-yl)-N-(pyrimidin-5-ylmethyl)benzamide]"
12,> 30 µM,CCC(=O)N1CCc2cc(-c3ccc(C(=O)NCc4ccccc4)cc3)ccc21 [Compound I-152]
13,> 30 µM,"CCC(=O)N1CCc2cc(N3CC(C(=O)NCc4cccnc4)C3)ccc21 [Compound I-209, 1-(1-propionylindolin-5-yl)-N-(pyridin-3-ylmethyl)azetidine-3-carboxamide]"
14,25.2 µM,"CCC(=O)N1CCc2cc(-c3ccc(C(=O)NCc4cccnn4)cc3)ccc21 [Compound I-197, 4-(1-propionylindolin-5-yl)-N-(pyridazin-3-ylmethyl)benzamide]"
15,2.03 µM,"CCC(=O)N1CCc2cc(-c3ccc(C(=O)NCc4cccnc4)cc3C)ccc21 [Compound I-91, 3-methyl-4-(1-propionylindolin-5-yl)-N-(pyridin-3-ylmethyl)benzamide]"
16,> 30 µM,"CCC(=O)N1CCc2cc(-c3ccc(C(=O)NCc4ccc(C)nc4)cc3)ccc21 [Compound I-59, N-((6-methylpyridin-3-yl)methyl)-4-(1-propionylindolin-5-yl) benzamide]"
